Measured values taken from ChEMBL document CHEMBL1136677, “Dermorphin tetrapeptide analogues with 2',6'-dimethylphenylalanine (Dmp) substituted for aromatic amino acids have high mu opioid receptor binding and biological activities” (Bioorg Med Chem Lett, 2003).
pIC50, pKi: −log10 of the molar value.

How the values were obtained:
Mus musculus [1] = assay: Antinociceptive activity in mice after subcutaneous injection in the first phase of formalin test; assay type: functional; conditions: sc
[2] = target: Delta-type opioid receptor (Mus musculus, UniProt P32300); assay: Ability to inhibit electrically induced contractions of mouse vas deferens having delta opioid receptors tested in vitro; assay type: tissue-based
[3] = target: Delta-type opioid receptor (Rattus norvegicus, UniProt P33533); assay: Ability to displace [3H]-deltorphin II from delta opioid receptor
Mu-type opioid receptor [4] = target: Mu-type opioid receptor (Rattus norvegicus, UniProt P33535); assay: Ability to displace [3H]DAMGO from mu opioid receptor
[5] = target: Mu-type opioid receptor (Cavia porcellus) (UniProt P97266); assay: Affinity towards mu opioid receptor using CTAP as antagonist in guinea pig ileum; assay type: functional, tissue-based
Mu-type opioid receptor [6] = target: Mu-type opioid receptor (Cavia porcellus, UniProt P97266); assay: Ability to inhibit electrically induced contractions of guinea pig ileum having mu opioid receptors tested in vitro; assay type: tissue-based
[7] = target: Prothrombin (Homo sapiens) (UniProt P00734); assay: (§1) Selectivity ratio of binding affinity of delta opioid receptor to mu opioid receptor
[8] = target: Delta-type opioid receptor (Mus musculus) (UniProt P32300); assay: Selectivity ratio of IC50(MVD) to IC50(GPI) was determined
Mus musculus [9] = assay: Antinociceptive activity in mice after subcutaneous injection in the second phase of formalin test; assay type: functional; conditions: sc
[10] = target: Delta-type opioid receptor (Mus musculus) (UniProt P32300); conditions: Vas deferens
Description: Affinity towards delta opioid receptor using CTAP as antagonist in mouse vas deferens

[11] = target: Delta-type opioid receptor (Mus musculus) (UniProt P32300); conditions: Vas deferens; remark: listed apart in the source
Description: Affinity towards delta opioid receptor using N,N(Me)2Dmt-Tic-OH as antagonist in mouse vas deferens

[12] = target: Delta-type opioid receptor (Rattus norvegicus) (UniProt P33533); assay: as §1
Delta-type opioid receptor (Rattus norvegicus), sequence (P33533 whole entry): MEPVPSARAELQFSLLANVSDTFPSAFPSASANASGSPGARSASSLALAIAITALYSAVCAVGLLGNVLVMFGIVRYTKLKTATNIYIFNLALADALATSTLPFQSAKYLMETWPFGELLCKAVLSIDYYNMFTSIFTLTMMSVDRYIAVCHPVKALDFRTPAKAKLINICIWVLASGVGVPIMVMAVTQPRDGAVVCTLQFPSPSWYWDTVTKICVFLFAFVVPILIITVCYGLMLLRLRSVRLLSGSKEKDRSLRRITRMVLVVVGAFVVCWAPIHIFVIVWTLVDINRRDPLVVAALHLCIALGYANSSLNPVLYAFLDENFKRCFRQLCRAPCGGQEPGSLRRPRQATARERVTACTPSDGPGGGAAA

Mu-type opioid receptor (Cavia porcellus, UniProt P97266), sequence (P97266 whole entry): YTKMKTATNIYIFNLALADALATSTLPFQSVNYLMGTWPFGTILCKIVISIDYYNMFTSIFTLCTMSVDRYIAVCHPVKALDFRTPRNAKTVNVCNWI
Mu-type opioid receptor (Cavia porcellus), sequence (P97266 whole entry): as above
Mu-type opioid receptor (Rattus norvegicus, UniProt P33535), sequence (P33535 whole entry): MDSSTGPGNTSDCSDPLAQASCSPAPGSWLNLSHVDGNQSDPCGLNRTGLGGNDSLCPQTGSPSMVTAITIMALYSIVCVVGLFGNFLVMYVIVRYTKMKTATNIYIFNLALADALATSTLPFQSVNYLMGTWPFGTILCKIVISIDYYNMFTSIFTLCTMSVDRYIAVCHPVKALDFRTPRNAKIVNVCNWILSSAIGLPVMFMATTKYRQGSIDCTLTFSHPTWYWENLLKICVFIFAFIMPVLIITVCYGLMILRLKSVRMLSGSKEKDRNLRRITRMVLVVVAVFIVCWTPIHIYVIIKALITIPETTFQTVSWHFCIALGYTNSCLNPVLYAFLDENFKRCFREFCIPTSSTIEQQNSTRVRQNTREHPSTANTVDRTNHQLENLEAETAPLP
Delta-type opioid receptor (Rattus norvegicus, UniProt P33533), sequence (P33533 whole entry): as the sequence (P33533 whole entry) above
Delta-type opioid receptor (Mus musculus), sequence (P32300 whole entry): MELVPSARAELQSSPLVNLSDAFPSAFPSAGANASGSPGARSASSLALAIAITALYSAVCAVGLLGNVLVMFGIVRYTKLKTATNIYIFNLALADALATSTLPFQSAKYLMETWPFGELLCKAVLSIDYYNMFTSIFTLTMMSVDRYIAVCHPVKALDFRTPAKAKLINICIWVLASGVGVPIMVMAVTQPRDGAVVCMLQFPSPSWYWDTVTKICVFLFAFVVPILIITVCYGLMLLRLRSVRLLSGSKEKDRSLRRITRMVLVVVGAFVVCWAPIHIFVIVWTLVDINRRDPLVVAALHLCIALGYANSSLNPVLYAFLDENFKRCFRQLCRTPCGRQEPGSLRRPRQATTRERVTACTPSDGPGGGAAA
Delta-type opioid receptor (Mus musculus, UniProt P32300), sequence (P32300 whole entry): as above

Cc1cccc(C)c1C[C@H](NC(=O)[C@@H](CCCN=C(N)N)NC(=O)[C@@H](N)Cc1ccc(O)cc1)C(=O)NCCC(N)=O
ED50 (Mus musculus [1]): 0.0986 µmol/kg | pIC50 [2]: 7.55 | pKi [3]: 6.26 | pKi (Mu-type opioid receptor [4]): 10.46 | Ke [5]: 22.7 nM | pIC50 (Mu-type opioid receptor [6]): 8.78 | Ratio [7]: 15500 | Ratio [8]: 16.7 | ED50 (Mus musculus [9]): 0.113 µmol/kg | Ke [10]: 11.4 nM | Ke [11]: > 1000 nM

Cc1cc(O)cc(C)c1C[C@H](N)C(=O)N[C@H](CCCN=C(N)N)C(=O)N[C@@H](Cc1ccccc1)C(=O)NCCC(N)=O
pIC50 [2]: 9.40 | pKi [3]: 8.95 | pKi (Mu-type opioid receptor [4]): 11.69 | pIC50 (Mu-type opioid receptor [6]): 10.47 | Ratio [12]: 551 | Ratio [8]: 11.7

NC(=O)CCNC(=O)[C@H](Cc1ccccc1)NC(=O)[C@@H](CCCN=C(N)N)NC(=O)[C@@H](N)Cc1ccc(O)cc1
ED50 (Mus musculus [1]): 0.628 µmol/kg | Ke [5]: 26.8 nM | Ratio [12]: 2800 | Ratio [8]: 21.8 | ED50 (Mus musculus [9]): 0.514 µmol/kg | Ke [10]: 21.2 nM | Ke [11]: > 1000 nM

CN1CC[C@]23c4c5ccc(O)c4O[C@H]2[C@@H](O)C=C[C@H]3[C@H]1C5 [MORPHINE]
ED50 (Mus musculus [1]): 3.81 µmol/kg | ED50 (Mus musculus [9]): 7.32 µmol/kg

N=C(N)NCCC[C@@H](NC(=O)[C@@H](N)Cc1ccc(O)cc1)C(=O)N[C@@H](Cc1ccccc1)C(=O)NCCC(N)=O
pIC50 [2]: 6.94 | pKi [3]: 6.32 | pKi (Mu-type opioid receptor [4]): 9.76 | pIC50 (Mu-type opioid receptor [6]): 8.27

Cc1cccc(C)c1C[C@@H](NC(=O)[C@@H](CCCN=C(N)N)NC(=O)[C@@H](N)Cc1ccc(O)cc1)C(=O)NCCC(N)=O
pIC50 [2]: 6.52 | pKi [3]: < 5.55 | pKi (Mu-type opioid receptor [4]): 10.21 | pIC50 (Mu-type opioid receptor [6]): 7.70 | Ratio [12]: > 45700 | Ratio [8]: 15.4

Cc1cccc(C)c1C[C@H](N)C(=O)N[C@H](CCCN=C(N)N)C(=O)N[C@@H](Cc1ccccc1)C(=O)NCCC(N)=O
ED50 (Mus musculus [1]): 1.95 µmol/kg | pIC50 [2]: 6.73 | pKi [3]: 5.59 | pKi (Mu-type opioid receptor [4]): 10.21 | Ke [5]: 25.1 nM | pIC50 (Mu-type opioid receptor [6]): 8.01 | Ratio [12]: 41300 | Ratio [8]: 19 | ED50 (Mus musculus [9]): 1.53 µmol/kg | Ke [10]: 13.4 nM | Ke [11]: > 1000 nM

Cc1cccc(C)c1C[C@@H](N)C(=O)N[C@H](CCCN=C(N)N)C(=O)N[C@@H](Cc1ccccc1)C(=O)NCCC(N)=O
Ratio [12]: > 370 | Ratio [8]: 4.6

NC(=O)CCNC(=O)[C@H](Cc1ccccc1)NC(=O)[C@@H](CCCN=C(N)N)NC(=O)[C@@H](N)Cc1ccccc1
pIC50 [2]: 5.15 | pKi [3]: < 5.55 | pKi (Mu-type opioid receptor [4]): 8.14 | pIC50 (Mu-type opioid receptor [6]): 6.20 | Ratio [12]: > 393 | Ratio [8]: 11.2

Cc1cccc(C)c1C[C@@H](N)C(=O)N[C@H](CCCNC(=N)N)C(=O)N[C@@H](Cc1ccccc1)C(=O)NCCC(N)=O
pIC50 [2]: 5.83 | pKi [3]: < 5.55 | pKi (Mu-type opioid receptor [4]): 8.12 | pIC50 (Mu-type opioid receptor [6]): 6.49

CC(C)[C@H](NC(=O)[C@H](CCC(=O)O)NC(=O)[C@H](Cc1ccccc1)NC(=O)[C@H](C)NC(=O)[C@@H](N)Cc1ccc(O)cc1)C(=O)N[C@H](C(=O)NCC(=O)O)C(C)C
Ke [10]: > 1000 nM | Ke [11]: 0.64 nM

Cc1cccc(C)c1C[C@H](NC(=O)[C@@H](CCCN=C(N)N)NC(=O)[C@@H](N)Cc1c(C)cccc1C)C(=O)NCCC(N)=O
pIC50 [2]: 7.30 | pKi [3]: 5.77 | pKi (Mu-type opioid receptor [4]): 10.67 | Ke [5]: 21.3 nM | pIC50 (Mu-type opioid receptor [6]): 8.56 | Ratio [12]: 78100 | Ratio [8]: 18.2 | Ke [10]: 10.2 nM | Ke [11]: > 1000 nM
